# Source: ChEMBL document CHEMBL1149954, “Synthesis of methyl -sialosides N-substituted with large alkanoyl groups, and investigation of their inhibition of agglutination of erythrocytes by influenza A virus” (Bioorg Med Chem Lett, 1993)
# Assays:
# [1] = species: Gallus gallus; assay: Compound was tested for its ability to displace a fluorescent ligand from the active site of bromelaine-cleaved hemagglutininin (BHA) at concentrations above 5 mM; no displacement was observed
# [2] = Compound was tested for its ability to displace a fluorescent ligand from the active site of bromelaine-cleaved hemagglutininin (BHA); set-up: species or system Gallus gallus
# [3] = Compound was tested for the inhibition of hemagglutinination when incorporated into liposomes (Hemagglutinination inhibition (HAI) assay); no inhibition took place
structure (smiles),measurement,setting,value
CCCCCCCC(=O)NC1C(O)CC(OC)(C(=O)O)OC1[C@H](O)[C@H](O)CO (stereo partly drawn),Binding affinity,[1],no displacement was observed
COC(=O)C1(OC)CC(O)C(NC(C)=O)C([C@H](O)[C@H](O)CO)O1 (stereo partly drawn),Kd,[2],2800 µM
CCCCCCCCCCCCCC(=O)NC1C(O)CC(OC)(C(=O)O)OC1[C@H](O)[C@H](O)CO (stereo partly drawn),Ki,[3],> 1000 µM
